Test results taken from PubChem BioAssay (NCI).
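Grown in 96-well plates, cells were treated for 48 hours with each compound at five concentrations. Insufficient inhibition: endpoint recorded as highest concentration tested. At the TGI there is no net growth.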

Key:
Test in all cases: NCI anticancer screen, dose series, 48 h
786-0 renal = test system: 786-0 renal
A498 renal = test system: A498 renal
A549 NSCLC = test system: A549 NSCLC
ACHN renal = test system: ACHN renal
BT-549 breast = test system: BT-549 breast
CAKI-1 renal = test system: CAKI-1 renal
CCRF-CEM leukemia = test system: CCRF-CEM leukemia
COLO 205 colon = test system: COLO 205 colon
DU-145 prostate = test system: DU-145 prostate
EKVX NSCLC = test system: EKVX NSCLC
HCC-2998 colon = test system: HCC-2998 colon
HCT-116 colon = test system: HCT-116 colon
HCT-15 colon = test system: HCT-15 colon
HL-60(TB) leukemia = test system: HL-60(TB) leukemia
HOP-62 NSCLC = test system: HOP-62 NSCLC
HOP-92 NSCLC = test system: HOP-92 NSCLC
HS 578T breast = test system: HS 578T breast
HT29 colon = test system: HT29 colon
IGROV1 ovarian = test system: IGROV1 ovarian
K-562 leukemia = test system: K-562 leukemia
KM12 colon = test system: KM12 colon
LOX IMVI melanoma = test system: LOX IMVI melanoma
M14 melanoma = test system: M14 melanoma
MALME-3M melanoma = test system: MALME-3M melanoma
MCF7 breast = test system: MCF7 breast
MDA-MB-231 breast = test system: MDA-MB-231 breast
MDA-MB-435 = test system: MDA-MB-435
MDA-N = test system: MDA-N
MOLT-4 leukemia = test system: MOLT-4 leukemia
NCI-H226 lung = test system: NCI-H226 lung
NCI-H23 lung = test system: NCI-H23 lung
NCI-H460 lung = test system: NCI-H460 lung
NCI-H522 lung = test system: NCI-H522 lung
NCI/ADR-RES ovarian = test system: NCI/ADR-RES ovarian
OVCAR-3 ovarian = test system: OVCAR-3 ovarian
OVCAR-4 ovarian = test system: OVCAR-4 ovarian
OVCAR-5 ovarian = test system: OVCAR-5 ovarian
OVCAR-8 ovarian = test system: OVCAR-8 ovarian
PC-3 prostate = test system: PC-3 prostate
RPMI-8226 leukemia = test system: RPMI-8226 leukemia
RXF 393 renal = test system: RXF 393 renal
SF-268 CNS = test system: SF-268 CNS
SF-295 CNS = test system: SF-295 CNS
SF-539 CNS = test system: SF-539 CNS
SK-MEL-2 melanoma = test system: SK-MEL-2 melanoma
SK-MEL-28 melanoma = test system: SK-MEL-28 melanoma
SK-MEL-5 melanoma = test system: SK-MEL-5 melanoma
SK-OV-3 ovarian = test system: SK-OV-3 ovarian
SN12C renal = test system: SN12C renal
SNB-19 CNS = test system: SNB-19 CNS
SR leukemia = test system: SR leukemia
SW-620 colon = test system: SW-620 colon
T-47D breast = test system: T-47D breast
TK-10 renal = test system: TK-10 renal
U251 CNS = test system: U251 CNS
UACC-257 melanoma = test system: UACC-257 melanoma
UACC-62 melanoma = test system: UACC-62 melanoma
UO-31 renal = test system: UO-31 renal
SNB-75 CNS = test system: SNB-75 CNS

Fc1ccc(C(OCCN2CCN(CCCCl)CC2)c2ccc(F)cc2)cc1
TGI (786-0 renal): 94.6 µM | TGI (A498 renal): 46.4 µM | TGI (A549 NSCLC): > 100 µM | TGI (ACHN renal): > 100 µM | TGI (BT-549 breast): 83.6 µM | TGI (CAKI-1 renal): > 100 µM | TGI (CCRF-CEM leukemia): > 100 µM | TGI (COLO 205 colon): 32.7 µM | TGI (DU-145 prostate): 73.7 µM | TGI (EKVX NSCLC): > 100 µM | TGI (HCC-2998 colon): 42.5 µM | TGI (HCT-116 colon): 46.6 µM | TGI (HCT-15 colon): 33.8 µM | TGI (HL-60(TB) leukemia): 25.6 µM | TGI (HOP-62 NSCLC): > 100 µM | TGI (HOP-92 NSCLC): 49 µM | TGI (HS 578T breast): 83.8 µM | TGI (HT29 colon): 40 µM | TGI (IGROV1 ovarian): 86.4 µM | TGI (K-562 leukemia): 60.7 µM | TGI (KM12 colon): 38 µM | TGI (LOX IMVI melanoma): 32.9 µM | TGI (M14 melanoma): 39.5 µM | TGI (MALME-3M melanoma): 31.8 µM | TGI (MCF7 breast): 41.1 µM | TGI (MDA-MB-231 breast): 75.5 µM | TGI (MDA-MB-435): 32.1 µM | TGI (MDA-N): 45 µM | TGI (MOLT-4 leukemia): > 100 µM | TGI (NCI-H226 lung): 40.9 µM | TGI (NCI-H23 lung): 50.5 µM | TGI (NCI-H460 lung): 55.5 µM | TGI (NCI-H522 lung): 36.8 µM | TGI (NCI/ADR-RES ovarian): 70.8 µM | TGI (OVCAR-3 ovarian): 74.9 µM | TGI (OVCAR-4 ovarian): 81.5 µM | TGI (OVCAR-5 ovarian): 63.9 µM | TGI (OVCAR-8 ovarian): 91 µM | TGI (PC-3 prostate): > 100 µM | TGI (RPMI-8226 leukemia): 49.5 µM | TGI (RXF 393 renal): 44.4 µM | TGI (SF-268 CNS): 77.5 µM | TGI (SF-295 CNS): 58.1 µM | TGI (SF-539 CNS): 34.6 µM | TGI (SK-MEL-2 melanoma): 52 µM | TGI (SK-MEL-28 melanoma): > 100 µM | TGI (SK-MEL-5 melanoma): 32.4 µM | TGI (SK-OV-3 ovarian): > 100 µM | TGI (SN12C renal): 69.4 µM | TGI (SNB-19 CNS): > 100 µM | TGI (SR leukemia): 61.9 µM | TGI (SW-620 colon): > 100 µM | TGI (T-47D breast): 52.5 µM | TGI (TK-10 renal): > 100 µM | TGI (U251 CNS): > 100 µM | TGI (UACC-257 melanoma): 47.5 µM | TGI (UACC-62 melanoma): 40.7 µM | TGI (UO-31 renal): > 100 µM

COc1ccc(OC)c(-c2nc3n(c2/C=C2/C(=O)Nc4ccccc42)CCS3)c1
TGI (786-0 renal): > 100 µM | TGI (A498 renal): > 100 µM | TGI (A549 NSCLC): > 100 µM | TGI (ACHN renal): > 100 µM | TGI (BT-549 breast): > 100 µM | TGI (CAKI-1 renal): > 100 µM | TGI (CCRF-CEM leukemia): > 100 µM | TGI (COLO 205 colon): > 100 µM | TGI (DU-145 prostate): > 100 µM | TGI (EKVX NSCLC): > 100 µM | TGI (HCT-116 colon): > 100 µM | TGI (HCT-15 colon): > 100 µM | TGI (HL-60(TB) leukemia): > 100 µM | TGI (HOP-62 NSCLC): > 100 µM | TGI (HOP-92 NSCLC): > 100 µM | TGI (HS 578T breast): > 100 µM | TGI (HT29 colon): > 100 µM | TGI (IGROV1 ovarian): > 100 µM | TGI (K-562 leukemia): > 100 µM | TGI (KM12 colon): > 100 µM | TGI (LOX IMVI melanoma): > 100 µM | TGI (M14 melanoma): > 100 µM | TGI (MALME-3M melanoma): > 100 µM | TGI (MCF7 breast): > 100 µM | TGI (MDA-MB-231 breast): 92.3 µM | TGI (MDA-MB-435): 40 µM | TGI (MDA-N): 44.7 µM | TGI (MOLT-4 leukemia): 78.2 µM | TGI (NCI-H226 lung): > 100 µM | TGI (NCI-H23 lung): > 100 µM | TGI (NCI-H460 lung): > 100 µM | TGI (NCI-H522 lung): > 100 µM | TGI (NCI/ADR-RES ovarian): > 100 µM | TGI (OVCAR-3 ovarian): > 100 µM | TGI (OVCAR-4 ovarian): > 100 µM | TGI (OVCAR-5 ovarian): > 100 µM | TGI (OVCAR-8 ovarian): > 100 µM | TGI (PC-3 prostate): > 100 µM | TGI (RPMI-8226 leukemia): > 100 µM | TGI (RXF 393 renal): 81.3 µM | TGI (SF-268 CNS): > 100 µM | TGI (SF-295 CNS): > 100 µM | TGI (SF-539 CNS): > 100 µM | TGI (SK-MEL-2 melanoma): 79 µM | TGI (SK-MEL-28 melanoma): > 100 µM | TGI (SK-MEL-5 melanoma): > 100 µM | TGI (SK-OV-3 ovarian): > 100 µM | TGI (SN12C renal): > 100 µM | TGI (SNB-19 CNS): > 100 µM | TGI (SNB-75 CNS): 83 µM | TGI (SR leukemia): 94.4 µM | TGI (SW-620 colon): > 100 µM | TGI (T-47D breast): > 100 µM | TGI (TK-10 renal): > 100 µM | TGI (U251 CNS): > 100 µM | TGI (UACC-257 melanoma): > 100 µM | TGI (UACC-62 melanoma): > 100 µM | TGI (UO-31 renal): > 100 µM
